The results in this text go back to article PMC9501633, “Synthesis, Characterisation and Mechanism of Action of Anticancer 3-Fluoroazetidin-2-ones” (Pharmaceuticals, 2022).

In general, IC50 refers to the concentration needed to halve the response being measured. Lower therefore signals greater potency in that assay. By amount remaining is commonly meant what is left of the initial amount, in per cent.

The test system of data set [1] is MCF-7 human breast cancer cells. The data set can be described thus: AlamarBlue cell viability assay. Format: cell-based. The settings on record: for viability at 1 µM / viability at 10 µM / IC50: Homo sapiens, MCF7, 72 h; for viability at 1 µM: MCF-7, 1 μM; for viability at 1 µM / viability at 10 µM: read-out: viable cells remaining; for viability at 10 µM: MCF-7, 10 μM; for IC50: MCF-7, 72 h. How it is done:
The antiproliferative potential of the synthesised 3-fluoro β-lactams 26–35 and 3,3-difluoro β-lactams 36–45 was evaluated in MCF-7 human breast cancer cells using the AlamarBlue assay, with CA-4 as reference compound (Figure 3). […] The results for the preliminary in vitro antiproliferative screen for 3-fluoro β-lactam compounds (26–29), which contain different substituents at the para position in the B ring, are presented in Figure 3A.
Cells were seeded at a density of 5 × 10^3 cells/well (MCF-7 and MDA-MB-231) and 1 × 10^4 cells/well (HEK-293T) in 96-well plates (200 μL per well). After 24 h, cells were then treated with medium alone, with vehicle (1% ethanol (v/v)) or with CA-4 or β-lactam compounds at 1 μM and 10 μM concentrations. […] Cell proliferation for MCF-7 cells was analysed with the AlamarBlue assay (Invitrogen Corp.) as previously described by us. After 72 h, AlamarBlue (10% (v/v)) was added to each well, and plates were incubated for 3–5 h at 37 °C in the dark. Fluorescence results were obtained with a 96-well fluorimeter with excitation at 530 nm and emission at 590 nm with results recorded as percentage viability relative to vehicle control (100%). Dose–response curves were obtained and IC50 values (concentration of drug resulting in 50% reduction in cell survival) were calculated using Prism (GraphPad Software, Inc., La Jolla, CA, USA).
Figure 3 Preliminary cell viability data for 3-fluoro and 3,3-difluoro β-lactam compounds. (A) 3-Fluoro β-lactam compounds containing different para-substituent ring B 26–29; 3-fluoro β-lactam compounds containing different meta-substituent ring B 30, 32–35; (B) 3-difluoro β-lactam compounds containing different para-substituent ring B 36–39; 3-difluoro β-lactam compounds containing different meta-substituent ring B 40, 42–45 in MCF-7 breast cancer cells. Cell proliferation of MCF-7 cells was determined with an AlamarBlue assay (seeding density […] for 96-well plates). Compound concentrations of either 10 μM or 1 μM for 72 h were used to treat the cells with control wells containing vehicle ethanol (1% v/v) and CA-4 (10 μM and 1 μM). The mean value for three experiments is shown with the ± S.E.M. for three independent experiments.
A general note: Alamar Blue is a resazurin reagent that responds to reducing activity.

Data set [2] relates to SW-480 cells. The data set is described as follows: AlamarBlue cell viability assay. The settings on record: SW-480, 10 μM, 72 h. The data set is classed as cell-based. As for the experimental part:
Compound # (Treatment Concentration µM) […]
different para-substituent ring B 26-29; 3-fluoro β-lactam compounds containing different meta-substituent ring B 30, 33-35; (B) 3,3-difluoro β-lactam compounds containing different para-substituent ring B 36-39; 3,3-difluoro β-lactam compounds containing different meta-substituent […]
ring B 40, 42-45 in SW-480 cancer cells.
Cell proliferation of MCF-7 cells was determined with an alamarBlue assay (seeding density […]
Compound concentrations of either 10 μM or 1 μM for 72 h were used to treat the cells with control wells containing vehicle ethanol (1%

Data set [3] in a line: Stability in phosphate buffers (HPLC). Format: physicochemical. How it is done:
(§1) The β-lactam ring is known to undergo hydrolysis/degradation depending on the substituent type on the ring. For example, degradation of monocyclic β-lactam antibiotic aztreonam increased with elevated humidity, temperature and acidic pH buffer. Ezetimibe, a monocyclic β-lactam drug used to reduce blood cholesterol, undergoes degradation and hydrolysis more rapidly in neutral and basic pH conditions than in acidic pH [71]. The stability of representative compounds 33 and 39 was also determined at pH 4, pH 7.4 (plasma) and pH 9 (intestine) by HPLC. […] The electron-withdrawing effect of the 3-fluoro substituent may result in decreasing stability of the β-lactam ring in response to acid hydrolysis.
(§2) The stability study for compounds 33 and 39 was performed using analytical HPLC (Symmetry column (C18, […], 4.6 × 150 mm), dual wavelength absorbance detector (Waters 2487), binary HPLC pump (Waters 1525) and autosampler (Waters 717 plus)) with mobile phase acetonitrile (70%)/water (30%), flow rate 1 mL/min over 15 min and detection at λ 254 nm. Stock solutions of compounds 33 and 39 (1 mg/mL in mobile phase) were used. Dilutions of 0.5 mg/mL, 0.25 mg/mL, 0.125 mg/mL, 0.0625 mg/mL, 0.03125 mg/mL, 0.015625 mg/mL and 0.0078 mg/mL were prepared for the calibration curve. (i) Stability of 33 and 39 in phosphate buffers: The phosphate buffers were prepared in accordance with the British Pharmacopoeia 2020 at pH values 4, 7.4 and 9. Stock solution, 300 µL (1 mg/mL ACN), was added to a vial containing buffer (9.7 mL), mixed and pre-heated to 37 °C. 1 mL of the solution was introduced into an HPLC vial. Samples (10 µL) were injected and analysed at time intervals of t = 0 min, 5 min, 30 min, 60 min and hourly for 24 h. The analysis was performed in triplicate. (ii) Thermal stability: Compounds 33 and 39 (1 mL stock solution) were each placed in a vial for 4 h at 60 °C on a heating block. The sample was then cooled, diluted with acetonitrile and analysed by HPLC. (iii) Photostability study: Compounds 33 and 39 (stock solution, 1 mL) were placed in a vial, exposed to UV light for 4 h and then analysed by HPLC. (iv) Stability in acidic conditions: HCl (0.1 M, 0.2 mL) was added to stock solutions (0.8 mL) of 33 and 39 in a vial. The vial was vortexed and retained at room temperature. A sample was neutralised with NaOH (0.1 M, 0.2 mL) each hour for 4 h and then analysed by HPLC. (v) Stability of 33 and 39 in basic (alkaline) conditions: NaOH (0.1 M, 0.2 mL) was added to stock solution (0.8 mL) in a vial. The vial was vortexed and retained at room temperature. A sample was neutralised with HCl (0.1 M, 0.2 mL) every hour for 4 h then analysed by HPLC. (vi) Stability of 33 and 39 in oxidising conditions: H2O2 (3%, 0.2 mL) was added to the stock solution (0.8 mL). The vial was vortexed to obtain a homogeneous mixture and retained at room temperature, and a sample was analysed by HPLC every hour for 4 h.

The nature of data set [4]: Stability under degradation conditions (HPLC). The data set is classed as physicochemical. How it is done: as §1, §2

For the compound `COc1ccc(C2C(F)C(=O)N2c2cc(OC)c(OC)c(OC)c2)cc1` (centres unmarked) [Compound 26, 3-Fluoro-4-(4-methoxyphenyl)-1-(3,4,5-trimethoxyphenyl)azetidin-2-one], in data set [1] (72 h), the viability at 1 µM is over 70% and the viability at 10 µM came to 40%. Further, in data set [1], half-maximal inhibition (IC50) required 312 nM. Besides, the cells remaining in data set [2] turned out to be 58%.
Turning to `CCOc1ccc(C2C(F)C(=O)N2c2cc(OC)c(OC)c(OC)c2)cc1` (centres unmarked) [Compound 27, 4-(4-Ethoxyphenyl)-3-fluoro-1-(3,4,5-trimethoxyphenyl)azetidin-2-one], in data set [1] (72 h), the viability at 1 µM was over 70% and the viability at 10 µM worked out at 46%.
As for `COc1cc(N2C(=O)C(F)C2c2ccc(SC)cc2)cc(OC)c1OC` (centres unmarked) [Compound 28, 3-Fluoro-4-(4-(methylthio)phenyl)-1-(3,4,5-trimethoxyphenyl)azetidin-2-one], in data set [1] (72 h), the viability at 1 µM is over 70% and the viability at 10 µM amounted to 47%.
With `CCSc1ccc(C2C(F)C(=O)N2c2cc(OC)c(OC)c(OC)c2)cc1` (centres unmarked) [Compound 29, 4-(4-(Ethylthio)phenyl)-3-fluoro-1-(3,4,5-trimethoxyphenyl)azetidin-2-one], in data set [1] (MCF-7, range over the two concentrations 1 and 10 μM, 72 h), the cell viability was 68–90%. This compound also came in with a cells remaining in data set [2] of 60%.
`CCSc1ccc(C2N(c3cc(OC)c(OC)c(OC)c3)C(=O)C2(F)F)cc1` (centres unmarked) [Compound 39, 4-(4-(Ethylthio)phenyl)-3,3-difluoro-1-(3,4,5-trimethoxyphenyl)azetidin-2-one]: the share remaining at 24 h, 0.03 mg/mL in data set [3] (phosphate buffer pH 4, 37 °C) was 39%; in data set [3] (phosphate buffer pH 7.4, 37 °C) it was 50%; in data set [3] (phosphate buffer pH 9, 37 °C), 19%. Besides, the fraction remaining at 0.03 mg/mL in data set [3] (phosphate buffer, pH 11 (as printed in Table S7)) is 19%. For the same compound, the amount remaining at 4 h, 0.8 mg/mL in data set [4] (0.1 M HCl added to stock solution, acidic (0.1 M HCl)) was found to be 54%; in data set [4] (0.1 M NaOH added to stock solution, alkaline (0.1M NaOH)) it was 60%; in data set [4] (3% H2O2 added to stock solution, oxidative (3% H2O2)), 50%. In addition, the share remaining at 4 h, 1 mg/mL in data set [4] (stock solution in acetonitrile/water under UV light, UV light) worked out at 61%; in data set [4] (stock solution in acetonitrile/water, heated, heat (60 °C)), 82%.
On to `COc1ccc(C2N(c3cc(OC)c(OC)c(OC)c3)C(=O)C2(F)F)cc1O` (centres unmarked) [Compound 42, 3,3-Difluoro-4-(3-hydroxy-4-methoxyphenyl)-1-(3,4,5-trimethoxyphenyl)azetidin-2-one], for which, in data set [1] (72 h), the viability at 1 µM was found to be 17% and the viability at 10 µM was 37%. In addition, the IC50 in data set [1] amounted to 321 nM. Moreover, the cells remaining in data set [2] came out at 56%.
